Measured values: article PMC8330742, “New benzothieno[2,3-c]pyridines as non-steroidal CYP17 inhibitors: design, synthesis, anticancer screening, apoptosis induction, and in silico ADME profile studies” (Journal of Enzyme Inhibition and Medicinal Chemistry, 2021)

Key:
SK-MEL-2 = assay: NCI-60 SRB screen; assay type: cell-based, human; conditions: Homo sapiens; SK-MEL-2; single dose 10^−5 M; read-out: Growth inhibition (%)
EKVX = assay: NCI-60 SRB screen; assay type: cell-based, human; conditions: Homo sapiens, single dose 10^−5 M, read-out: Growth inhibition (%)
CAKI-1 = assay: NCI-60 SRB screen; assay type: cell-based, human; conditions: Homo sapiens; CAKI-1; single dose 10^−5 M; read-out: Growth inhibition (%)
SK-MEL-28 = assay: NCI-60 SRB screen; assay type: cell-based; conditions: Homo sapiens; SK-MEL-28; single dose 10^−5 M; read-out: Growth inhibition (%)
786-0 = assay: NCI-60 SRB screen; assay type: cell-based; conditions: Homo sapiens; 786-0; single dose 10^−5 M; read-out: Growth inhibition (%)
HOP-92 = assay: NCI-60 SRB screen; assay type: cell-based, human; conditions: Homo sapiens; HOP-92; single dose 10^−5 M; read-out: Growth inhibition (%)
M14 = assay: NCI-60 SRB screen; assay type: cell-based, human; conditions: Homo sapiens; M14; single dose 10^−5 M; read-out: Growth inhibition (%)
HCT-15 = assay: NCI-60 SRB screen; assay type: cell-based, human; conditions: Homo sapiens; HCT-15; single dose 10^−5 M; read-out: Growth inhibition (%)
[1] = system: panel of 60 cancer cell lines; assay: NCI-60 SRB screen, mean or range over the panel; assay type: cell-based, human; conditions: Homo sapiens; mean over the cell lines; single dose 10^−5 M; read-out: Mean growth inhibition (%)
NCI/ADR-RES = assay: NCI-60 SRB screen; assay type: cell-based, human; conditions: Homo sapiens, single dose 10^−5 M, read-out: Growth inhibition (%)
SR = assay: NCI-60 SRB screen; assay type: cell-based; conditions: Homo sapiens, single dose 10^−5 M, read-out: Growth inhibition (%)
NCI-H226 = assay: NCI-60 SRB screen; assay type: cell-based, human; conditions: Homo sapiens; NCI-H226; single dose 10^−5 M; read-out: Growth inhibition (%)
SW-620 = assay: NCI-60 SRB screen; assay type: cell-based; conditions: Homo sapiens; SW-620; single dose 10^−5 M; read-out: Growth inhibition (%)
OVCAR-8 = assay: NCI-60 SRB screen; assay type: cell-based, human; conditions: Homo sapiens; OVCAR-8; single dose 10^−5 M; read-out: Growth inhibition (%)
NCI-H23 = assay: NCI-60 SRB screen; assay type: cell-based, human; conditions: Homo sapiens; NCI-H23; single dose 10^−5 M; read-out: Growth inhibition (%)
KM12 = assay: NCI-60 SRB screen; assay type: cell-based, human; conditions: Homo sapiens; KM12; single dose 10^−5 M; read-out: Growth inhibition (%)
HT-29 = assay: NCI-60 SRB screen; assay type: cell-based; conditions: Homo sapiens; HT-29; single dose 10^−5 M; read-out: Growth inhibition (%)
TK-10 = assay: NCI-60 SRB screen; assay type: cell-based, human; conditions: Homo sapiens; TK-10; single dose 10^−5 M; read-out: Growth inhibition (%)
ACHN = assay: NCI-60 SRB screen; assay type: cell-based; conditions: Homo sapiens, single dose 10^−5 M, read-out: Growth inhibition (%)
CCRF-CEM = assay: NCI-60 SRB screen; assay type: cell-based; conditions: Homo sapiens, single dose 10^−5 M, read-out: Growth inhibition (%)
HCT-116 = assay: NCI-60 SRB screen; assay type: cell-based, human; conditions: Homo sapiens; HCT-116; single dose 10^−5 M; read-out: Growth inhibition (%)
K-562 = assay: NCI-60 SRB screen; assay type: cell-based, human; conditions: Homo sapiens, K562; K-562; single dose 10^−5 M; read-out: Growth inhibition (%)
OVCAR-4 = assay: NCI-60 SRB screen; assay type: cell-based, human; conditions: Homo sapiens; OVCAR-4; single dose 10^−5 M; read-out: Growth inhibition (%)
SN12C = assay: NCI-60 SRB screen; assay type: cell-based, human; conditions: Homo sapiens, SN12C; SN 12 C; single dose 10^−5 M; read-out: Growth inhibition (%)
RXF 393 = assay: NCI-60 SRB screen; assay type: cell-based, human; conditions: Homo sapiens; RXF 393; single dose 10^−5 M; read-out: Growth inhibition (%)
OVCAR-3 = assay: NCI-60 SRB screen; assay type: cell-based, human; conditions: Homo sapiens; OVCAR-3; single dose 10^−5 M; read-out: Growth inhibition (%)
A549/ATCC = assay: NCI-60 SRB screen; assay type: cell-based, human; conditions: Homo sapiens, single dose 10^−5 M, read-out: Growth inhibition (%)
SF-295 = assay: NCI-60 SRB screen; assay type: cell-based, human; conditions: Homo sapiens; SF-295; single dose 10^−5 M; read-out: Growth inhibition (%)
UO-31 = assay: NCI-60 SRB screen; assay type: cell-based, human; conditions: Homo sapiens; UO-31; single dose 10^−5 M; read-out: Growth inhibition (%)
IGROV1 = assay: NCI-60 SRB screen; assay type: cell-based, human; conditions: Homo sapiens, IGROV-1; IGROV1; single dose 10^−5 M; read-out: Growth inhibition (%)
MALME-3M = assay: NCI-60 SRB screen; assay type: cell-based, human; conditions: Homo sapiens, single dose 10^−5 M, read-out: Growth inhibition (%)
SK-OV-3 = assay: NCI-60 SRB screen; assay type: cell-based, human; conditions: Homo sapiens; SK-OV-3; single dose 10^−5 M; read-out: Growth inhibition (%)
SK-MEL-5 = assay: NCI-60 SRB screen; assay type: cell-based, human; conditions: Homo sapiens; SK-MEL-5; single dose 10^−5 M; read-out: Growth inhibition (%)
SF-268 = assay: NCI-60 SRB screen; assay type: cell-based, human; conditions: Homo sapiens; SF-268; single dose 10^−5 M; read-out: Growth inhibition (%)
MDA-MB-435 = assay: NCI-60 SRB screen; assay type: cell-based; conditions: Homo sapiens, MDA-MB-435, read-out: Growth inhibition (%)
HOP-62 = assay: NCI-60 SRB screen; assay type: cell-based, human; conditions: Homo sapiens; HOP-62; single dose 10^−5 M; read-out: Growth inhibition (%)
COLO 205 = assay: NCI-60 SRB screen; assay type: cell-based, human; conditions: Homo sapiens; COLO 205; single dose 10^−5 M; read-out: Growth inhibition (%)
NCI-H522 = assay: NCI-60 SRB screen; assay type: cell-based, human; conditions: Homo sapiens; NCI-H522; single dose 10^−5 M; read-out: Growth inhibition (%)
UACC-62 = assay: NCI-60 SRB screen; assay type: cell-based, human; conditions: Homo sapiens; UACC-62; single dose 10^−5 M; read-out: Growth inhibition (%)
HL-60(TB) = assay: NCI-60 SRB screen; assay type: cell-based, human; conditions: Homo sapiens; HL-60 (TB); single dose 10^−5 M; read-out: Growth inhibition (%)
UACC-257 = assay: NCI-60 SRB screen; assay type: cell-based, human; conditions: Homo sapiens, UACC-257; UACC-275 (so in the source); single dose 10^−5 M; read-out: Growth inhibition (%)
NCI-H322M = assay: NCI-60 SRB screen; assay type: cell-based, human; conditions: Homo sapiens, single dose 10^−5 M, read-out: Growth inhibition (%)
MOLT-4 = assay: NCI-60 SRB screen; assay type: cell-based; conditions: Homo sapiens; MOLT-4; single dose 10^−5 M; read-out: Growth inhibition (%)
NCI-H460 = assay: NCI-60 SRB screen; assay type: cell-based, human; conditions: Homo sapiens; NCI-H460; single dose 10^−5 M; read-out: Growth inhibition (%)

With `COc1ccc(C2NC(=O)C(C#N)c3c2sc2c(F)cccc32)c(OC)c1` (stereo not shown) [Compound 5a, 1-(2,4-Dimethoxyphenyl)-4-cyano-8-fluoro-1,2-dihydro[1]benzothieno [2,3-c]pyridin-3(4H)-one] the inhibition at 10 µM (SK-MEL-2) was 35.9%, the inhibition at 10 µM (EKVX) was 20.7% and the inhibition at 10 µM (CAKI-1) was 78.7%. For the same compound, the inhibition at 10 µM (SK-MEL-28) was 45.9%, the inhibition at 10 µM (786-0) was 31.6% and the inhibition at 10 µM (HOP-92) was 57.8%. The inhibition at 10 µM (M14) was 62.2%, the inhibition at 10 µM (HCT-15) was 63.6% and the inhibition at 10 µM [1] was 52.5%. The inhibition at 10 µM (NCI/ADR-RES) was 84.4%, the inhibition at 10 µM (SR) was 86.1% and the inhibition at 10 µM (NCI-H226) was 37.8%. For the same compound, the inhibition at 10 µM (SW-620) was 68.7%, the inhibition at 10 µM (OVCAR-8) was 38.7% and the inhibition at 10 µM (NCI-H23) was 35.2%. It also gave an inhibition at 10 µM (KM12) of 69%, an inhibition at 10 µM (HT-29) of 36% and an inhibition at 10 µM (TK-10) of 1.9%. For the same compound, the inhibition at 10 µM (ACHN) was 62.5%, the inhibition at 10 µM (CCRF-CEM) was 28.1% and the inhibition at 10 µM (HCT-116) was 77.2%. For the same compound, the inhibition at 10 µM (K-562) was 76.1%, the inhibition at 10 µM (OVCAR-4) was 46.3% and the inhibition at 10 µM (SN12C) was 26.3%. For the same compound, the inhibition at 10 µM (RXF 393) was 90.3%, the inhibition at 10 µM (OVCAR-3) was 86.3% and the inhibition at 10 µM (A549/ATCC) was 41.5%. For the same compound, the inhibition at 10 µM (SF-295) was 72.4%, the inhibition at 10 µM (UO-31) was 66% and the inhibition at 10 µM (IGROV1) was 48.2%. It also gave an inhibition at 10 µM (MALME-3M) of 60.3%, an inhibition at 10 µM (SK-OV-3) of 49.3% and an inhibition at 10 µM (SK-MEL-5) of 18.2%. The inhibition at 10 µM (SF-268) was 48.9%, the inhibition at 10 µM (MDA-MB-435) was -129% and the inhibition at 10 µM (HOP-62) was 42.6%. The inhibition at 10 µM (COLO 205) was 11.7%, the inhibition at 10 µM (NCI-H522) was 92% and the inhibition at 10 µM (UACC-62) was 58.8%. For the same compound, the inhibition at 10 µM (HL-60(TB)) was 43%, the inhibition at 10 µM (UACC-257) was 31.8% and the inhibition at 10 µM (NCI-H322M) was 9.6%. The inhibition at 10 µM (MOLT-4) was 28.6% and the inhibition at 10 µM (NCI-H460) was 68.2%.
For `COc1ccc(C2NC(=O)C(C#N)c3c2sc2c(F)cccc32)cc1` (stereo not shown) [Compound 5b, 4-Cyano-8-fluoro-1-(4-methoxyphenyl)-1,2-dihydro[1]benzothieno[2,3-c] pyridin-3(4H)-one], the inhibition at 10 µM (SK-MEL-2) was 40%, the inhibition at 10 µM (EKVX) was 38.3% and the inhibition at 10 µM (CAKI-1) was 60%. It also gave an inhibition at 10 µM (SK-MEL-28) of 47.4%, an inhibition at 10 µM (786-0) of 29.1% and an inhibition at 10 µM (HOP-92) of 45.9%. The inhibition at 10 µM (M14) was 66.7%, the inhibition at 10 µM (HCT-15) was 66.5% and the inhibition at 10 µM [1] was 52.5%. For the same compound, the inhibition at 10 µM (NCI/ADR-RES) was 70.7%, the inhibition at 10 µM (SR) was 77.9% and the inhibition at 10 µM (NCI-H226) was 39.8%. The inhibition at 10 µM (SW-620) was 75.7%, the inhibition at 10 µM (OVCAR-8) was 30.2% and the inhibition at 10 µM (NCI-H23) was 24.8%. It also gave an inhibition at 10 µM (KM12) of 60%, an inhibition at 10 µM (HT-29) of 49.5% and an inhibition at 10 µM (TK-10) of -12.7%. For the same compound, the inhibition at 10 µM (ACHN) was 55.5%, the inhibition at 10 µM (CCRF-CEM) was 66% and the inhibition at 10 µM (HCT-116) was 62.5%. The inhibition at 10 µM (K-562) was 86%, the inhibition at 10 µM (OVCAR-4) was 28.4% and the inhibition at 10 µM (SN12C) was 38.6%. For the same compound, the inhibition at 10 µM (RXF 393) was 44.1%, the inhibition at 10 µM (OVCAR-3) was 99.4% and the inhibition at 10 µM (A549/ATCC) was 58.5%. The inhibition at 10 µM (SF-295) was 69.5%, the inhibition at 10 µM (UO-31) was 64.2% and the inhibition at 10 µM (IGROV1) was 58.9%. It also gave an inhibition at 10 µM (MALME-3M) of 52.9%, an inhibition at 10 µM (SK-OV-3) of 36.9% and an inhibition at 10 µM (SK-MEL-5) of 39.5%. It also gave an inhibition at 10 µM (SF-268) of 39%, an inhibition at 10 µM (MDA-MB-435) of 109% and an inhibition at 10 µM (HOP-62) of 54.6%. The inhibition at 10 µM (COLO 205) was 8.44%, the inhibition at 10 µM (NCI-H522) was 79.9% and the inhibition at 10 µM (UACC-62) was 64.7%. For the same compound, the inhibition at 10 µM (HL-60(TB)) was 89.5%, the inhibition at 10 µM (UACC-257) was 36.1% and the inhibition at 10 µM (NCI-H322M) was 34.8%. It also gave an inhibition at 10 µM (MOLT-4) of 50.9% and an inhibition at 10 µM (NCI-H460) of 71.4%.
